#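 All cell lines were grown in 96-well plates and treated with compound for 48 hours. TGI: concentration producing complete growth inhibition.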 Where a SMILES comes first, the peptide text is derived from it. [ ]: non-standard residue; d: D form. The star is where a group is joined. X28 = COC1=CC(=O)N(C(=O)[C@@H](O*)C(C)C)[C@H]1Cc1ccccc1; Bn2Val = CC(C)[C@@H](C(=O)*)N(Cc1ccccc1)Cc1ccccc1; NMeV = CN[C@H](C(=O)O)C(C)C; dNMeA = CN[C@H](C)C(=O)O
# Key:
# Test in all cases: DTP human tumour cell line panel, 48 h
# [1] = system: TK-10 renal
# [2] = system: SK-MEL-5 melanoma
# [3] = system: DU-145 prostate
# [4] = system: ACHN renal
# [5] = system: SK-MEL-28 melanoma
# [6] = system: HOP-92 NSCLC
# [7] = system: U251 CNS
# [8] = system: LOX IMVI melanoma
# [9] = system: SN12C renal
# [10] = system: SW-620 colon
# [11] = system: OVCAR-3 ovarian
# [12] = system: SK-OV-3 ovarian
# [13] = system: SF-268 CNS
# [14] = system: BT-549 breast
# [15] = system: T-47D breast
# [16] = system: M14 melanoma
# [17] = system: CCRF-CEM leukemia
# [18] = system: OVCAR-4 ovarian
# [19] = system: UO-31 renal
# [20] = system: KM12 colon
# [21] = system: SNB-19 CNS
# [22] = system: UACC-257 melanoma
# [23] = system: MALME-3M melanoma
# [24] = system: IGROV1 ovarian
# [25] = system: RXF 393 renal
# [26] = system: SNB-75 CNS
# [27] = system: HS 578T breast
# [28] = system: EKVX NSCLC
# [29] = system: SF-539 CNS
# [30] = system: MCF7 breast
# [31] = system: K-562 leukemia
# [32] = system: MDA-MB-435
# [33] = system: RPMI-8226 leukemia
# [34] = system: COLO 205 colon
# [35] = system: CAKI-1 renal
# [36] = system: PC-3 prostate
# [37] = system: HOP-62 NSCLC
# [38] = system: HCT-15 colon
# [39] = system: MDA-MB-231 breast
# [40] = system: NCI-H226 lung
# [41] = system: NCI/ADR-RES ovarian
# [42] = system: A498 renal
# [43] = system: 786-0 renal
# [44] = system: OVCAR-5 ovarian
# [45] = system: SR leukemia
# [46] = system: NCI-H460 lung
# [47] = system: A549 NSCLC
# [48] = system: UACC-62 melanoma
# [49] = system: NCI-H522 lung
# [50] = system: SK-MEL-2 melanoma
# [51] = system: HCC-2998 colon
# [52] = system: OVCAR-8 ovarian
# [53] = system: MDA-N
# [54] = system: SF-295 CNS
# [55] = system: HT29 colon
# [56] = system: HCT-116 colon
smiles,measurement,setting,value
COC1=CC(=O)N(C(=O)[C@@H](OC(=O)[C@@H](C)N(C)C(=O)[C@@H]2CCCN2C(=O)[C@H](C(C)C)N(C)C(=O)[C@@H](NC(=O)[C@H](C(C)C)N(Cc2ccccc2)Cc2ccccc2)C(C)C)C(C)C)[C@H]1Cc1ccccc1 (Bn2Val-V[NMeV]P[dNMeA]-X28),TGI,[1],> 100 µM
same,TGI,[2],> 100 µM
same,TGI,[3],> 100 µM
same,TGI,[4],> 100 µM
same,TGI,[5],> 100 µM
same,TGI,[6],> 100 µM
same,TGI,[7],> 100 µM
same,TGI,[8],> 100 µM
same,TGI,[9],> 100 µM
same,TGI,[10],> 100 µM
same,TGI,[11],> 100 µM
same,TGI,[12],> 100 µM
same,TGI,[13],> 100 µM
same,TGI,[14],> 100 µM
same,TGI,[15],> 100 µM
same,TGI,[16],> 100 µM
same,TGI,[17],> 100 µM
same,TGI,[18],> 100 µM
same,TGI,[19],22.3 µM
same,TGI,[20],> 100 µM
same,TGI,[21],> 100 µM
same,TGI,[22],> 100 µM
same,TGI,[23],> 100 µM
same,TGI,[24],> 100 µM
same,TGI,[25],> 100 µM
same,TGI,[26],> 54.8 µM
same,TGI,[27],> 100 µM
same,TGI,[28],> 100 µM
same,TGI,[29],> 100 µM
same,TGI,[30],> 100 µM
same,TGI,[31],> 100 µM
same,TGI,[32],> 100 µM
same,TGI,[33],> 100 µM
same,TGI,[34],> 100 µM
same,TGI,[35],> 100 µM
same,TGI,[36],> 100 µM
same,TGI,[37],> 100 µM
same,TGI,[38],> 100 µM
same,TGI,[39],> 77.6 µM
same,TGI,[40],> 100 µM
same,TGI,[41],> 100 µM
same,TGI,[42],> 100 µM
same,TGI,[43],> 100 µM
same,TGI,[44],> 100 µM
same,TGI,[45],> 100 µM
same,TGI,[46],> 100 µM
same,TGI,[47],> 100 µM
same,TGI,[48],> 100 µM
same,TGI,[49],> 100 µM
same,TGI,[50],> 100 µM
same,TGI,[51],> 100 µM
same,TGI,[52],> 100 µM
same,TGI,[53],> 100 µM
same,TGI,[54],> 100 µM
same,TGI,[55],> 100 µM
same,TGI,[56],> 100 µM
